Measurements reported in patent US20030199002A1, “Clk-2 nucleic acids, polypeptides and uses thereof” (priority 2000, published 2003).

Experiments:
[1] = test system: SK-HEP-1 cells overexpressing hclk-2; assay: Cell death assay (trypan blue exclusion) in SK-HEP-1 cells overexpressing hclk-2; format: cell-based, human; conditions: SK-HEP-1 cells overexpressing hclk-2 vs control cells
Method: (§1) FIG. 11 illustrates the affect of hclk-2 overexpression on sensitivity to menadione, t-butyl hydroperoxide and hydroxyurea of SK-HEP-1 cells. SK-HEP-1 cells overexpressing hclk-2 and control cells were seeded at 1×10^5/well in a 6-well dish and were treated with γ-rays or apoptosis-inducing compounds for various lengths of time (see Table 7). Cells were then trypsinized, diluted and stained with 0.2% trypan blue. Cell viability was expressed as the percentage of cells excluding trypan blue. The data shown are the means of triplicate experiments. When cells were treated with menadione, t-butyl hydroperoxide or hydroxyurea, the viability of SK-HEP-1 cells overexpressing hclk-2 (44%, 30%, 40% respectively) was dramatically lower than that of the control cells (70%, 63%, 76%), respectively.
(§2) To determine the occurrence of cell death, cells were seeded at 1×10^5 in 6-well dishes. The next day the cells were treated by γ-ray (20 Gy) and counted 72 hr later. A series of different apoptosis-inducing agents were also investigated and the cells were analyzed at various times following treatment (see Table 7). Cell viability was measured by the trypan blue exclusion method.

[2] = as above; format: cell-based, human; conditions: human; SK-HEP-1 cells overexpressing hclk-2; concentration and time per Table 7: menadione 12 μM 24 hr, t-butyl hydroperoxide 40 μM 48 hr, hydroxyurea 0.6 mM 96 hr; means of triplicate; read-out: Cell viability (percentage of cells excluding trypan blue)
Method: as §1, §2

[3] = Cell death assay (trypan blue exclusion) in SK-HEP-1 control cells; format: cell-based; conditions: human; SK-HEP-1 control cells (empty vector); concentration and time per Table 7: menadione 12 μM 24 hr, t-butyl hydroperoxide 40 μM 48 hr, hydroxyurea 0.6 mM 96 hr; means of triplicate; read-out: Cell viability (percentage of cells excluding trypan blue)
Method: as §1, §2

Row | Compound | Sensitivity of cells overexpressing hclk-2 to the apoptosis-inducing agent, compared to control cells [1] | viability [2] [%] | viability [3] [%]
1 | COc1cc([C@@H]2c3cc4c(cc3[C@@H](O[C@@H]3O[C@@H]5CO[C@@H](C)O[C@H]5[C@H](O)[C@H]3O)[C@H]3COC(=O)[C@H]23)OCO4)cc(OC)c1O [etoposide, Etoposide] | no evidence to suggest that an increased sensitivity | – | –
2 | NC(=O)NO [hydroxyurea, Hydroxyurea] | also hypersensitive | – | –
3 | CC1=CC(=O)c2ccccc2C1=O [menadione, Menadione] | specifically hypersensitive | – | –
4 | CC(C)(C)OO [t-butyl hydroperoxide, t-Butyl hydroperoxide] | specifically hypersensitive | 30 | 63
